Measured values: patent publication US20260297060A1, “COMPOUNDS FOR THE DEGRADATION OF MUTANT BRAF” (C4 THERAPEUTICS, INC., priority 2023, published 2026)
Where two headings read alike, the source gives them in different places.

Key:
[1] = Example 8 pharmacokinetics assay for efficacy study (plasma, liver); format: in vivo, BALB/c nude mice; conditions: mouse, po, 35 mg/kg, p.o., QD × 21 days
Experimental: For efficacy study, agents were tested in the A375 human melanoma xenografts model. Compound 8, Compound 26, and Compound 38 were administered to BALB/c nude mice bearing A375 xenografts from day 0 and dosed p.o. twice per day (BID). Compound 8 and Compound 26 were dosed at 10 mg/kg for 21 days. Compound 38 was dosed at 10 mg/kg for 10 days. The known BRAF inhibitor encorafenib was used as a positive control. encorafenib was administered from day 1 and dosed p.o. daily (QD) for 21 days and dosed at 35 mg/kg.
The plasma samples were collected at predetermined time points for PK analysis. For non-termination plasma collection, blood samples were collected into the 1.5 mL Eppendorf tubes containing 3 μL of 0.5 M EDTA-K2. For termination plasma collection, the mice were euthanized at predetermined time points post the treatment and the blood samples were collected into the 1.5 mL Eppendorf tubes containing 15 μL of 0.5 M EDTA-K2. And then the anticoagulant blood samples were centrifuged at 2,500 g at 4° C. for 15 minutes. The plasma samples were separated into 2 aliquots. The 1st was used for PK analysis, and the 2nd served as backup. The samples were stored at −80° C. before bioanalysis.
Liver samples were collected at predetermined time points for PK analysis. The left lobe of the liver was dissected out and split into 2 parts. The 1st part was used for PK analysis and the 2nd part served as the backup for the study. The samples were transferred into pre-labeled tubes and quickly froze in liquid nitrogen within 2 minutes after dissection. The samples were stored at −80° C. before bioanalysis.
The harvested plasma and liver samples were processed for pharmacokinetics analysis by LC-MS/MS with a concentration range of 2.0~2000 ng/mL for encorafenib in plasma and liver homogenate, 10.0-10,000 ng/mL for Compound 8 and Compound 38 in plasma and liver homogenate, 20.0~20,000 ng/mL for Compound 26 in plasma and liver homogenate.

[2] = test system: A375 human melanoma xenografts; experiment: In vivo therapeutic efficacy in A375 human melanoma xenografts (tumor volume, T/C, TGI), Example 14; parameters: species or system human tumor in female BALB/c nude mice; conditions: for Tumor volume: 100 mg/kg p.o. QD x 21 days
Experimental: Agents were tested in the A375 human melanoma xenografts. Compound 26 and Compound 141 were administered to BALB/c nude mice bearing A375 tumors from PG-DO and dosed via PO twice a day (BID) or third a day (TIP) or dosed P daily (QD) from PG-D. Dabrafenib was administered to BALB/c nude mice bearing A375 tumors from PG-D1 and dosed via P daily (QD). Compound 26 was dosed at 1.5 mg/kg (QD), 2 mg/kg (TID), 3 mg/kg (BID), 6 mg/kg (QD) and 10 mg/kg (BID) for 21 days. Compound 141 was dosed at 0.75 mg/kg (BID), 1 mg/kg (TID), 1.5 mg/kg (BID), 3 mg/kg (QD) and 5 mg/kg (BID) for 21 days. Dabrafenib was dosed at 100 mg/kg for 21 days. This study was non-GLP.
One hundred and thirty-eight female BALB/c nude Mus Musculus mice procured from Shanghai Lingchang Biological Science and Technology Co., LTD between the ages of six to eight weeks and with body weight between eighteen and twenty-two grams were used for the study. A spare mouse was also procured.
The A375 tumor cells were maintained in vitro in DMEM medium supplemented with 10% fetal bovine serum and 1% Penicillin-Streptomycin at 37° C. in an atmosphere of 5% CO2 in air. The tumor cells were routinely sub-cultured twice weekly. The cells growing in an exponential growth phase were harvested and counted for tumor inoculation.
Each mouse was inoculated subcutaneously at the right flank with A375 cells (5×10^6) in 0.2 mL of PBS supplemented with Matrigel (PBS: Matrigel=1:1) for tumor development. Animals were grouped for efficacy study on day 15 after tumor inoculation when the average tumor volume reached 220 mm^3. The test articles administration and the animal numbers in each group are shown in the above experimental Table 75.
At the time of routine monitoring, the animals were checked daily for any effects of tumor growth and treatments on normal behavior such as mobility, food and water consumption (by looking only), body weight gain/loss (body weights were measured twice weekly), eye/hair matting and any other abnormal effect as stated in the protocol. Death and observed clinical signs were recorded on the basis of the numbers of animals within each subset.
Prior to the onset of drug treatment, mice were measured for tumor size in two dimensions using a caliper, and the tumor volume (mm^3) was calculated using formula V=0.5 a×b^2 where a and b are the long and short diameters of the tumor in mm, respectively. Mice were randomized into different treatment groups based on the tumor volume.
The major endpoint was to see if the tumor growth could be delayed or mice could be cured. The tumor size was then used for calculations of T/C value. The T/C value (in percent) is an indication of antitumor effectiveness; T and C are the mean volumes of the treated and control groups, respectively on specified day.
TGI was calculated for each group using the formula: TGI (%)=[1−(Ti−T0)/(Ci−C0)]×100; Ti is the average tumor volume of a treatment group on a given day, T0 is the average tumor volume of the treatment group on the day of treatment start, Ci is the average tumor volume of the vehicle control group on the same day with Ti, and C0 is the average tumor volume of the vehicle group on the day of treatment start.
A one-way ANOVA followed by Dunnett's multiple comparison test was performed to compare tumor volume among vehicle group (Group 1) and treatment groups (Group 2-Group 12). All data were analyzed using GraphPad Prism, ns indicates p>0.05, * indicates p<0.05, ** indicates p<0.01, *** indicates p<0.001 and **** indicates p<0.0001.
Tumor growth inhibition of Compound 26, Compound 141 and dabrafenib in the treatment of female BALB/c nude mice bearing A375 xenografts was calculated based on tumor volume measured on […]. TGI and T/C were calculated respectively and the data are detailed in Table 82.

[3] = 100 mg/kg, p.o., QD × 21 days, PG-D21

COC(=O)N[C@@H](C)CNc1nccc(-c2cn(C(C)C)nc2-c2cc(Cl)cc(NS(C)(=O)=O)c2F)n1 [Encorafenib, encorafenib, reference compound]
concentration at 6 h ([1]; liver, read-out: Concentration in Liver (mean ± SEM)): 186 ± 87.2 ng/g | concentration at 6 h ([1]; plasma, read-out: Concentration in Plasma (mean ± SEM)): 336 ± 150 ng/mL

CC(C)(C)c1nc(-c2cccc(NS(=O)(=O)c3c(F)cccc3F)c2F)c(-c2ccnc(N)n2)s1 [Dabrafenib, dabrafenib, reference compound]
Tumor volume ([2]; day 0, mean ± SEM): 220 ± 15 mm^3 | Tumor volume ([2]; day 4, mean ± SEM): 367 ± 24 mm^3 | Tumor volume ([2]; day 7, mean ± SEM): 421 ± 28 mm^3 | Tumor volume ([2]; day 11, mean ± SEM): 560 ± 38 mm^3 | Tumor volume ([2]; day 14, mean ± SEM): 756 ± 54 mm^3 | Tumor volume ([2]; day 18, mean ± SEM): 1031 ± 79 mm^3 | Tumor volume ([2]; day 21, mean ± SEM): 1095 ± 86 mm^3 | Tumor volume ([2]; day 25 (dosing-free regrowth), mean ± SEM): 1007 ± 137 mm^3 | Tumor volume ([2]; day 28 (dosing-free regrowth), mean ± SEM): 1366 ± 209 mm^3 | Tumor volume ([2]; day 32 (dosing-free regrowth), mean ± SEM): 1679 ± 323 mm^3 | Tumor volume ([2]; day 35 (dosing-free regrowth), mean ± SEM): 1711 ± 245 mm^3 | Tumor volume ([2]; day 39 (dosing-free regrowth), mean ± SEM): 2116 ± 279 mm^3 | Tumor volume ([2]; day 42 (dosing-free regrowth), mean ± SEM): 2634 ± 337 mm^3 | Tumor volume ([2]; day 46 (dosing-free regrowth), mean ± SEM): 2535 ± 321 mm^3 | Tumor volume ([2]; day 49 (dosing-free regrowth), mean ± SEM): 3163 ± 478 mm^3 | Tumor volume ([2]; day 53 (dosing-free regrowth)): 3001 mm^3 | Tumor Size on PG-D21 (Mean ± SEM) ([2]; 100 mg/kg p.o. QD × 21 days): 1095 ± 86 mm^3 | T/C [2, 3]: 58.1% | TGI [2, 3]: 47.4%
